According to US10875847B2, “Aminopyrazoles as selective janus kinase inhibitors” (Intervet Inc., priority 2016, dated 2020):
Read-outs that look alike come from different tables or passages of the source.

Legend:
[1] = tested on: Interleukin 6 (IL6)—JAK1/JAK2-STAT4 Pathway; test: IL6 CellSensor cell pathway engagement assay (SIE-bla ME-180 cells); settings: for IC50: Homo sapiens; for EPO/IL-6: Table 3, comparative examples
Source text: Inhibition of the activity of JAK1 and JAK2 kinases in intact cells was quantified in antagonist mode using CellSensor® transcriptional reporter technology (Life Technologies/ThermoFisher: https://www.thermofisher.com/us/en/home/industrial/pharma-biopharma/drug-discovery-development/target-and-lead-identification-and-validation/pathway-biology/cellular-pathway-analysis/cellsensor-cell-lines.html), in two independent cell lines engineered to detect IL4, IL6 and EPO signaling. In brief, CellSensor® cell lines (see details below for each assay) carrying a stably integrated β-Lactamase reporter gene under control of specific cis-regulatory STAT elements responsive to the pathway being monitored were pre-treated with test compounds serially diluted in DMSO (see preparation and dosing of compounds and agonist cytokines section). […] Incubation with compounds, cytokines and LiveBLAzer™ were carried out at 37° C. in a tissue culture incubator maintained at 90% humidity and 5% CO2.
Interleukin 6 (IL6)—JAK1/JAK2-STAT4 Pathway:
CellSensor™ SIE-bla ME-180 cells carrying a stably integrated β-Lactamase reporter gene under control of the Sis-Inducible Element (SIE).
Each CellSensor® cell line was subsequently plated as per supplier's instructions (30,000 cells in 32 μL/well) and mixed with compound. Following a 60 minute incubation cells were subsequently stimulated by addition of 8 μL of cognate cytokine (EC80 dose of IL6 and EPO) and incubated for an additional 3 hours, before adding LiveBLAzer™-FRET B/G substrate.

JAK1 = JAK1 (Homo sapiens (Human), UniProt P23458); test: Jak biochemical HTRF enzyme assay, JAK1
Chain of JAK1 (P23458 875-1153): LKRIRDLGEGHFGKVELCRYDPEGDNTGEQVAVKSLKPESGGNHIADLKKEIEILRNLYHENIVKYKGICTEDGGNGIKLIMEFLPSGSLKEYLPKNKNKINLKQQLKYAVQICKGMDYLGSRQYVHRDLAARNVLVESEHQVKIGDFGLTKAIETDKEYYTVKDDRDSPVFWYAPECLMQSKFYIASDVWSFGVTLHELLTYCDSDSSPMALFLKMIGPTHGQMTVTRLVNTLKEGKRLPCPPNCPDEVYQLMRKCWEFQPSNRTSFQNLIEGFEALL

JAK3 = JAK3 (Homo sapiens (Human), UniProt P52333); test: Jak biochemical HTRF enzyme assay, JAK3; settings: Table 1
Chain of JAK3 (P52333 822-1111): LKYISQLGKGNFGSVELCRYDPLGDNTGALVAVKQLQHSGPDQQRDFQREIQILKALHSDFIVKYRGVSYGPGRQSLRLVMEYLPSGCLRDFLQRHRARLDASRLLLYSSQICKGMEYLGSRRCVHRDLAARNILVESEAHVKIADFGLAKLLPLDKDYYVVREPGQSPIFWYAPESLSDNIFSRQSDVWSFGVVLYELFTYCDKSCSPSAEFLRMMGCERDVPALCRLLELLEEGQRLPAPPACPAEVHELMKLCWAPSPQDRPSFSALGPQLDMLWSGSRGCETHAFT
Source text: Jak Biochemical HTRF Enzyme Assay Protocol
The ability of compounds to inhibit the catalytic activity of JAK1, JAK2, JAK3, and TYK2 was quantified using a recombinant purified GST-tagged catalytic domain for each enzyme (InVitrogen/Life Technologies/ThermoFisher, catalogue #s: JAK1, #M4290; […]) in an HTRF format biochemical assay. […] Subsequent reagent additions employed an Agilent Bravo automated liquid handler. […] After normalization to untreated controls, the percent inhibition of the HTRF signal at each compound concentration was calculated. The plot of percent inhibition versus the log value of compound concentration was done as described above for cell assays to calculate IC50 values.

[2] = tested on: Erythropoietin (EPO)—JAK2-STAT5 Pathway; test: EPO CellSensor cell pathway engagement assay (irf1-bla TF-1 cells); format: cell-based; settings: Homo sapiens, Table 1
Method: In brief, CellSensor® cell lines (see details below for each assay) carrying a stably integrated β-Lactamase reporter gene under control of specific cis-regulatory STAT elements responsive to the pathway being monitored were pre-treated with test compounds serially diluted in DMSO (see preparation and dosing of compounds and agonist cytokines section). […] Incubation with compounds, cytokines and LiveBLAzer™ were carried out at 37° C. in a tissue culture incubator maintained at 90% humidity and 5% CO2.
CellSensor irf1-bla TF-1 cells carry a stably integrated β-Lactamase reporter gene under control of the STAT5 Response Elements present in the Interferon Regulatory Factor I (IRF1) gene promoter.

[3] = Dog pharmacokinetics after IV administration; settings: in vivo, 0.25 mg/kg I.V.
Method: Examples of the instant invention were evaluated in JAK1, JAK2, and JAK3 in vitro binding assays, and IL-6 and EPO cell pathway engagement assays, as described above. Table 1 tabulates the IC50 values of the instant invention in the JAK1, JAK2, and JAK3 in the in vitro binding assays, and the IL-6 and EPO cell pathway engagement assays, as well as the ratio of the JAK2/JAK1 IC50s, JAK3/JAK1 IC50s, and the EPO/IL-6 IC50s. Table 2 tabulates the pharmacokinetic parameters of the instant invention in the dog after IV administration.

[4] = IL-31 induced itching model; format: in vivo, Beagle dogs; settings: dog, in vivo, 1 mg/kg body weight; Beagle dogs, dosing before cIL-31 challenge; read-out: approximate Tmax
cIL-31 induced pruritus = test: IL-31 induced itching model; format: in vivo, Beagle dogs
[5] = 6-week pilot target animal safety study; settings: for NOAEL at 6 weeks: dog, in vivo, po
Method: The drug was administered orally, as a compressed tablet, twice per day for 6 weeks to dogs at 1, 3, and 5 times the maximum exposure dose of 0.5 mg/kg, or once per day for 6 weeks to dogs at 5 times the maximum exposure dose of 1 mg/kg.

[6] = dogs with allergic or atopic dermatitis; cited from earlier work
[7] = dogs, higher doses; cited from earlier work
[8] = 0.5 mg/kg body weight, second study
[9] = dogs, oral, 6 weeks, up to 5 times maximum exposure dose
[10] = ME-180, read-out: IL-6 IC50 (nM)

CS(=O)(=O)c1ccc(Nc2nn([C@H]3CCCC[C@@H]3C#N)c3cc[nH]c(=O)c23)cc1 [B, (1S,2S)-2-(3-{[4-(methylsulfonyl)phenyl]amino}-4-oxo-4,5-dihydro-1H-pyrazolo[4,3-c]pyridin-1-yl)cyclohexanecarbonitrile]
potency in IL6 CellSensor assay relative to EPO CellSensor assay ([1]; IL6 versus EPO assay): within two-three fold

COc1cc(Nc2nn([C@H]3COCC[C@@H]3C#N)cc2C(N)=O)cc(F)n1 (single isomer, unassigned) [Compound 1, 1-((3R,4S) or (3S,4R)-4-cyanotetrahydro-2H-pyran-3-yl)-3-((2-fluoro-6-methoxypyridin-4-yl)amino)-1H-pyrazole-4-carboxamide]
IC50 (JAK1): 0.43 nM
IC50 (JAK3): 1130 nM
IC50 [2]: 460 nM
AUC [3]: 1.29 µM·h
clearance [3]: 9.42 mL/min/kg
half-life [3]: 4.38 h
Vd ([3]; read-out: Vdss): 1.95 L/kg
Tmax [4]: ~2 h
suppression of cIL-31 induced pruritus (cIL-31 induced pruritus; 0.05 mg/kg body weight (sentence prints 0.5), second study): not
suppression of cIL-31 induced pruritus (cIL-31 induced pruritus; 0.1 mg/kg body weight, second study): not
magnitude of effect compared with Apoquel (cIL-31 induced pruritus; [8]): similar
suppression of cIL-31 induced pruritus (cIL-31 induced pruritus; [8]): significantly suppressed
suppression of cIL-31 induced pruritus (cIL-31 induced pruritus; 1 mg/kg body weight, dosed 2 h prior to cIL-31 challenge, first study): significantly suppressed
magnitude of pruritus suppression compared with Apoquel (cIL-31 induced pruritus; 1 mg/kg body weight, first study): similar
NOAEL at 6 weeks [5]: 2.5 mg/kg
NOAEL at 6 weeks ([5]; 5 mg/kg once per day): 5 mg/kg/day
test article related effects in clinical observations, fecal observations, body weight, food consumption, physical examination, blood pressure, ophthalmology, cardiology [5, 9]: No test article related effects were observed
test article related effects in postmortem evaluations (organ weights, macroscopic and microscopic findings) [5, 9]: No test article related effects were observed
IC50 [1, 10]: 41.8 nM

CN(C)[C@H]1CC[C@H](n2cc(C(N)=O)c(Nc3ccc(Cl)cc3)n2)[C@@H](C#N)C1 (single isomer, unassigned) [Reference Compound A, 3-[(4-chlorophenyl)amino]-1-[(1S,2S,4S or 1R,2R,4R)-2-cyano-4-(dimethylamino)cyclohexyl]-1H-pyrazole-4-carboxamide]
IC50 (JAK1; Table 3, comparative examples): 1.67 nM

N#CCC1(n2cc(-c3ncnc4[nH]ccc34)cn2)CN(C2CCN(C(=O)c3ccnc(C(F)(F)F)c3F)CC2)C1 [INCB39110]
IC50 (JAK1; Table 3, comparative examples): 0.3 nM
JAK2/1 (JAK1; Table 3, comparative examples): 10x
IC50 ([1]; ME-180, read-out: IL-6 IP (nM)): 97 nM
EPO/IL-6 [1]: 5x

N#CC[C@H](C1CCCC1)n1cc(-c2ncnc3[nH]ccc23)cn1 [JAKAFI]
JAK2/1 (JAK1): 0.7x
IC50 ([1]; ME-180, read-out: IL-6 IP (nM)): 40 nM
EPO/IL-6 [1]: 0.2x

COc1cc(Nc2nn([C@@H]3COCC[C@H]3C#N)cc2C(N)=O)cc(F)n1 [Enantiomer of 1]
IC50 (JAK1; Table 1): 17.7 nM
IC50 (JAK3): > 1250 nM
IC50 [2]: 9480 nM
IC50 [1, 10]: 2440 nM

CNS(=O)(=O)C[C@H]1CC[C@H](N(C)c2ncnc3[nH]ccc23)CC1 [Oclacitinib]
IC50 (JAK1; Table 3, comparative examples): 3.4 nM
JAK2/1 (JAK1; Table 3, comparative examples): 2.0x
effect on pruritus and lesions [6]: rapid amelioration of pruritus and reduces lesions
effect on hematocrit, hemoglobin and reticulocyte counts [7]: reduction
IC50 ([1]; ME-180, read-out: IL-6 IP (nM)): 230 nM
EPO/IL-6 [1]: 2.4x
